Laboratory results from patent US20250101062A1, “ANTIMICROBIAL PEPTIDES” (Board of Regents of the University of Nebraska, priority 2023, published 2025).
Where two headings read alike, the source gives them in different places. Where no end group is shown, it is not given here.

Legend:
S. aureus USA300 LAC = assay: microbe, parasite or virus in culture; assay type: cell-based, Staphylococcus aureus
Description: (§1) The following resistant bacterial clinical strains were used in this study: S. aureus USA300 LAC, S. epidermidis 1457, E. coli E423-17, P. aeruginosa E411-17, K. pneumoniae E406-17, and A. baumannii B28-16. While the S. aureus USA300 strain is methicillin-resistant, most of the Gram-negative bacteria contain extended-spectrum beta-lactamase and are resistant to beta-lactam antibiotics. Peptide activity against bacteria was tested using an established lab protocol (Mishra, et al. (2017) Acta Biomater., 49:316-328). In brief, a peptide concentration gradient with twofold dilution was made in the 96-well polystyrene microplate at 10 μL per well. Bacteria were grown to the exponential phase (i.e., optical density at 600 nm≈0.5), diluted to ˜10^5 CFU/mL in different percentages of MHB, TSB, or LB, and partitioned into the 96-well microplate at 90 μL per well. […] They were diluted with autoclaved distilled water to obtain different percentages. The microplates were incubated at 37° C. overnight and read on a ChroMate™ 4300 microplate reader at 600 nm (GMI, Ramsey, MN). The peptide concentration in the wells without bacterial growth is the MIC. As is the convention, MIC values were represented as ranges.
(§2) For pH effects on peptide activity, the pH of the medium was adjusted to a targeted pH for the autoclave and then remeasured at room temperature. For salt and serum effects on peptide activity, stock NaCl solution or human serum was added to the media.
(§3) Peptide activity against bacteria were tested using the CLSI standard procedure with minor modifications (Clinical and Laboratory Standards Institute (2018) Performance standards for antimicrobial susceptibility testing, 9th ed.; Mishra, et al. (2019) Proc. Natl. Acad. Sci., 116(27):13517-13522). In brief, a peptide concentration gradient with twofold dilution was made in the 96-well polystyrene microplate at 10 μL per well. Bacteria were grown to the exponential phase (i.e., optical density at 600 nm≈0.5), diluted to ˜10^5 CFU/mL in MHB, and partitioned into the 96-well microplate at 90 μL per well. The microplates were incubated at 37° C. overnight and read on a ChroMate® 4300 Microplate Reader at 600 nm (GMI, Ramsey, MN). The peptide concentration in the wells without bacterial growth is the minimal inhibitory concentration (MIC). As the convention, MIC values were represented as ranges.
(§4) For pH effects on peptide activity, the pH of the medium was adjusted to a targeted pH for autoclave and then remeasured at room temperature. For salt and serum effects on peptide activity, stock NaCl solution or human serum were added to the media.

MRSA USA300 = assay: Membrane permeabilization (propidium iodide); assay type: cell-based, Staphylococcus aureus; details: Example 1, 1×MIC
Description: The peptide ladder was prepared as described for the antibacterial assay with 10 μL of solution in a black COSTAR® 96-well plate. PI (MP Biomedicals, Solon, OH) was prepared in the dark and dissolved in dimethylsulfoxide (Thermo Fisher Scientific, NY) to 20 mM. This PI stock solution was further diluted to 1 mM with water, and 2 μL of 1 mM PI was added to each well. Exponential-phase MRSA USA300 was diluted to OD600 0.11 with TSB, and 88 μL was added to each well. The plate was incubated at 37° C. with continuous shaking in a FLUOstar® Omega (BMG LABTECH, NC) microplate reader. The sample was read every 5 minutes for 24 cycles with excitation and emission wavelengths of 584 and 620 nm, respectively.
Bacterial membrane permeation was conducted (Yeaman, et al. (1998) J. Clin. Invest., 101(1):178-87). In brief, the peptide ladder was prepared as described for the antibacterial assay with 10 μL in a black COSTAR 96-well plate. Propidium iodide (PI) (MP Biomedicals, Solon, OH) was prepared in the dark and dissolved in DMSO (Thermo Fisher Scientific, NY) to 20 mM. This PI stock solution was further diluted to 1 mM with water and 2 μL of 1 mM PI was added to each well. Exponential phase MRSA USA300 or P. aeruginosa E411-17 was diluted to OD600 0.11 with tryptic soy broth (TSB) and 88 μL was added to each well. The plate was incubated at 37° C. with continuous shaking in a FLUOstar® Omega (BMG LABTECH, NC) microplate reader. The sample was read every 5 minutes for 24 cycles with excitation and emission wavelengths at 584 nm and 620 nm, respectively.

E. coli E423-17 [1] = assay: Membrane permeabilization (propidium iodide); assay type: cell-based, Escherichia coli; details: Example 1, 1×MIC
[2] = Effect of MHB dilution on antibacterial activity of a panel of antibiotics; assay type: cell-based; details: MHB from 100 to 12.5%
Description: FIGS. 2A-2D show biofilm disruption activity of human LL-37 (FIGS. 2A and 2B) and 17BIPHE2 (FIGS. 2C and 2D) against the 24 hour preformed biofilms of S. aureus USA300 LAC in different MHB media: 12.5% MHB (FIGS. 2A and 2C) and 100% MHB (FIGS. 2B and 2D). FIGS. 2E-2H show the treatment outcome of LL-37 (FIGS. 2E and 2F) and 17BIPHE2 (FIGS. 2G and 2H) against the 24-hour preformed biofilms of E. coli E423-17 in different MHB media: 12.5% MHB (FIGS. 2E and 2G) and 100% MHB (FIGS. 2F and 2H). […] Growth curves of S. aureus USA 300 LAC (FIGS. 2J-2K) and P. aeruginosa 152 (FIGS. 2L-2M) in 12.5%, 25%, 50% and 100% MHB or TSB medium (curves from bottom to top).
The effects of MHB dilution on the antimicrobial activity of a panel of antibiotics was also compared (FIG. 2I).

E. coli E423-17 [3] = assay type: cell-based, Escherichia coli; details: E423-17
Description: as §1, §2, §3, §4

K. pneumoniae E406-17 = assay type: cell-based, Klebsiella pneumoniae
Description: as §1, §3

A. baumannii B28-16 = assay type: cell-based, Acinetobacter baumannii; details: B28-16
Description: as §1, §3

P. aeruginosa E411-17 = assay: microbe, parasite or virus in culture; assay type: cell-based, Pseudomonas aeruginosa; details: for MIC: read-out: Antimicrobial activity (MIC)
Description: as §1, §2, §3, §4

human red blood cells = assay: Hemolytic assay; assay type: cell-based; details: red cells of human
Description: The hemolytic effects of peptides were evaluated using a method with minor modifications (Lakshmaiah Narayana, et al. (2021) ACS Infect. Dis., 7:1795-1808). Human red blood cells (hRBCs, UNMC Blood Bank) were washed (3×) with blood bank saline (isotonic solution 0.90% w/v, Fisher). Cells were diluted to 2% using the saline solution, and aliquots of 90 μL were added to a 96-well polystyrene microplate containing 10 μL of serially diluted peptide solutions. After incubation at 37° C. for 1 hour, plates were centrifuged at 500 g for 5 minutes. Aliquots of the supernatant were transferred to a 96-well microplate. The amount of hemoglobin released was measured at 545 nm by using a ChroMate™ microplate reader. […] HC50 is defined as the concentration of the peptide that caused 50% lysis.
The hemolytic effects of peptides were evaluated (Narayana, et al. (2020) Proc. Natl. Acad. Sci., 117(32):19446-9454). In brief, human red blood cells (UNMC Blood Bank) were washed (3×) and diluted to 2% using the saline solution. Aliquots of 90 μL were mixed with 10 μL of serially diluted peptide solutions. After incubation at 37° C. for 1 hour, plates were centrifuged at 500 g for 5 minutes and aliquots of the supernatant were transferred to a new 96-well microplate to measure the amount of hemoglobin released at 545 nm (relative to 1% Triton® X-100) using a ChroMate® Microplate Reader.

[4] = tested on: human keratinocyte HaCaT cells; assay: Cell viability assay (MTS); assay type: cell-based
Description: Human keratinocyte HaCaT cells were grown in DMEM/high glucose (Hyclone, UT) containing 10% fetal bovine serum (Mediatech, Corning, Manassas, VA). […] The mixture was incubated at 37° C. in 5% CO2 for 24 hours.
(§5) HepG2 cells were cultured in ATCC-formulated Eagle's Minimum Essential Medium with 10% FBS. A549 cells were grown in ATCC-formulated F-12K Medium containing 10% FBS.

S. epidermidis 1457 = assay: microbe, parasite or virus in culture; assay type: cell-based, Staphylococcus epidermidis; details: for MIC: read-out: Antimicrobial activity (MIC) S. epidermidis 1457
Description: as §1, §3

Cytotoxicity assay (MTS) = assay type: cell-based; details: human, HepG2 cells, read-out: LC50
Description: as §5

P. aeruginosa E416-17 = assay type: cell-based, Pseudomonas aeruginosa
Description: as §3

[5] = USA300, pH 6.21, read-out: Antimicrobial activity (MIC)
[6] = USA300, pH 7.22, read-out: Antimicrobial activity (MIC)
[7] = USA300, pH 8.13, read-out: Antimicrobial activity (MIC)
[8] = USA300, read-out: Antimicrobial activity (MIC)

Substance | MIC (S. aureus USA300 LAC; [5]) | MIC (S. aureus USA300 LAC; [6]) | MIC (S. aureus USA300 LAC; [7]) | MIC (S. aureus USA300 LAC; [8]) | Antimicrobial activity (MIC) E. coli E423-17 (E. coli E423-17 [3]) | Antimicrobial activity (MIC) A. baumannii B28-16 (A. baumannii B28-16) | Antimicrobial activity (MIC) P. aeruginosa E411-17 (P. aeruginosa E411-17; E411-17) | MIC (P. aeruginosa E411-17; E411-17, pH 6.21) | MIC (P. aeruginosa E411-17; E411-17, pH 8.13) | Hemolysis (HC10), 10% hemolytic concentration (human red blood cells) | CC50 at 24 h (Cytotoxicity assay (MTS)) | MIC K. pneumoniae E406-17 (K. pneumoniae E406-17) | MIC P. aeruginosa E416-17 (P. aeruginosa E416-17) | other results
Gentamicin | – | – | – | – | – | – | – | – | – | – | – | – | – | Antimicrobial activity (MIC) (S. aureus USA300 LAC; MRSA in MHB, 10% serum): 0.5 to 1 µM; Antimicrobial activity (MIC) (S. aureus USA300 LAC; MRSA in MHB, 20% serum): 0.5 µM; Antimicrobial activity (MIC) (S. aureus USA300 LAC; MRSA in MHB, NaCl (150 mM)): 1 µM; Antimicrobial activity (MIC) (S. aureus USA300 LAC; MRSA in MHB, pH 6.3): 1 to 2 µM; Antimicrobial activity (MIC) (S. aureus USA300 LAC; MRSA in MHB, pH 7.2): 0.5 µM; membrane permeabilization (MRSA USA300): no fluorescence increase; membrane permeabilization (E. coli E423-17 [1]): did not permeate the E. coli membrane; change in MIC with dilution of MHB [2]: essentially no changes
KRIWQRWK-NH2 [W540] | – | – | – | – | – | – | – | – | – | – | – | – | – | Activity (MIC) S. aureus (S. aureus USA300 LAC; USA300): >32 µM; Activity (MIC) E.coli (E. coli E423-17 [3]): >32 µM; Activity (MIC) K. pneumoniae (K. pneumoniae E406-17): >32 µM; Activity (MIC) A. baumannii (A. baumannii B28-16): >32 µM; Activity (MIC) P. aeruginosa (P. aeruginosa E411-17; E411-17): >32 µM; HC50 (50% hemolysis) (human red blood cells): ~150 µM; toxicity to human HaCaT skin cells [4]: more toxic than the other peptides
KRWWQWWK-NH2 [KR-8+] | >32 µM | 8 µM | 8 µM | 16 µM | 4 µM | 16 to 32 µM | 8 µM | 8 µM | 8 µM | 300 µM | 12.5 µM | – | – | Antimicrobial activity (MIC) (S. aureus USA300 LAC; USA300): 16 to 32 µM; Antimicrobial activity (MIC) S. aureus USA300 (S. aureus USA300 LAC; USA300): 8 to 16 µM; Antimicrobial activity (MIC) S. epidermidis 1457 (S. epidermidis 1457): 16 to 32 µM; MIC (P. aeruginosa E411-17; E411-17, pH 7.22): 8 µM
KWKRFFRGWL-NH2 [RetroLL-10+] | – | – | – | – | – | – | – | – | – | – | – | >32 µM | 4 µM | –
LWGRFFRKWK-NH2 [LL-10+] | >32 µM | 16 µM | 4 µM | > 32 µM | 32 µM | >32 µM | 8 to 16 µM | 16 µM | 8 µM | > 400 µM | > 100 µM | >32 µM | 8 µM | MIC S. aureus USA300 (S. aureus USA300 LAC; USA300): 16 µM; MIC (S. aureus USA300 LAC; USA300, read-out: Antimicrobial activity (MIC) S. aureus USA300): 16 µM; MIC E. coli E423-17 (E. coli E423-17 [3]): 32 µM; MIC (S. epidermidis 1457): 32 µM; MIC (P. aeruginosa E411-17; E411-17, pH 7.22): 8 µM; MIC (P. aeruginosa E411-17; E411-17): >32 µM
RRWWRWWL-NH2 [W544] | – | – | – | – | – | – | – | – | – | – | – | – | – | Activity (MIC) K. pneumoniae (K. pneumoniae E406-17): 8 to 16 µM; Activity (MIC) A. baumannii (A. baumannii B28-16): 8 to 16 µM; Activity (MIC) P. aeruginosa (P. aeruginosa E411-17; E411-17): 4 µM; HC50 (50% hemolysis) (human red blood cells): about 80 μM; toxicity to human HaCaT skin cells [4]: more toxic than the other peptides
RWWKKWWGK-NH2 [RK-9+] | >32 µM | 8 µM | 4 µM | 32 µM | 8 µM | >32 µM | 8 to 16 µM | 32 µM | 4 µM | > 400 µM | > 100 µM | – | – | Antimicrobial activity (MIC) (S. aureus USA300 LAC; USA300): 16 to 32 µM; Antimicrobial activity (MIC) S. aureus USA300 (S. aureus USA300 LAC; USA300): 8 to 16 µM; MIC (S. epidermidis 1457): 16 µM; Antimicrobial activity (MIC) (P. aeruginosa E411-17; E411-17, pH 7.22): 8 to 16 µM; MIC (P. aeruginosa E411-17; E411-17): >32 µM
VWNRLFRKWR-NH2 [RetroRIK-10++] | – | – | – | – | – | – | – | – | – | – | – | >32 µM | 16 µM | –
